Values quoted from earlier work, collected in patent publication US7390809B2, “Beta-amino heterocyclic dipeptidyl peptidase inhibitors for diabetes” (Merck & Co., Inc., priority 2002, dated 2008).

How the values were obtained:
cardiac allograft = details: rats; survival doubled from day 7
DP-IV = biological target: T1, DP-IV (Homo sapiens, UniProt P27487)
T1 construct: GRF is rapidly degraded in plasma to GRF[3-44]

hematopoiesis = details: mouse, cyclophosphamide-induced neutropenia

T1 sequence (P27487 whole entry): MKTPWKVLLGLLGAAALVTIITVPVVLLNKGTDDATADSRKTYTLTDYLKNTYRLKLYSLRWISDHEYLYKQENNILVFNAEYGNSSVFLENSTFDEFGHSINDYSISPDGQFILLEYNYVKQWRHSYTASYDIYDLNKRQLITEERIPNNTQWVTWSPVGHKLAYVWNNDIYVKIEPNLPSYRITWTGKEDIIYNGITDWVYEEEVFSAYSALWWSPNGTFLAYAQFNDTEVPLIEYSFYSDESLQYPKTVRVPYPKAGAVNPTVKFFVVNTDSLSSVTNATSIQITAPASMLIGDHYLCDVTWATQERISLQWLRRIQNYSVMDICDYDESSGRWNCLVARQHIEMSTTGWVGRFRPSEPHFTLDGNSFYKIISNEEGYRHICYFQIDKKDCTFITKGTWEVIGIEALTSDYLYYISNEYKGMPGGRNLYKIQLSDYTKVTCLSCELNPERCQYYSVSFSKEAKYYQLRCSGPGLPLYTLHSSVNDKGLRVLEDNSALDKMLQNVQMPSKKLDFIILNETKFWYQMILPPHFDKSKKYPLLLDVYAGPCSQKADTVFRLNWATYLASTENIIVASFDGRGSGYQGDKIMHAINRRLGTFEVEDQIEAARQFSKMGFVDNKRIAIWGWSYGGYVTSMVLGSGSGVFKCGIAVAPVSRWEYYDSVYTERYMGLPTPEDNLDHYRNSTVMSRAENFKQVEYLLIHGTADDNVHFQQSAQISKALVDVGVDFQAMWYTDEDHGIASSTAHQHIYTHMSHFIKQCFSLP

In the case of CC(C)N1CCC(c2ccccc2)(c2ccccc2)CC1 [Prodipine, Pro-Pro-diphenyl-phosphonate], the cardiac allograft survival (cardiac allograft) is listed as 14 day.
In the case of diprotin A, the “degradation of GRF in plasma to GRF[3-44]” value (DP-IV) is given as “prevented”.
For CC(C)[C@H](N)C(=O)N1CCC[C@H]1B(O)O [Val-Boro-Pro], the effect on hematopoiesis (hematopoiesis) is listed as “stimulated hematopoiesis”.
